The values that follow come from patent US9000020B2, “Linked dibenzimidazole antivirals” (Enanta Pharmaceuticals, Inc., priority 2009, dated 2015).

For the assay, the system named is HCV 1b genotype replicon. Briefly: HCV Replicon Assay - qRT-PCR (HCV RNA detection). It counts as cell-based. The following applies: Hepatitis C virus, from the qRT-PCR or luciferase assay (not specified which), read-out: Genotype-1b replicon EC50 Range. The text has this:
HCV replicon cell lines (kindly provided by R. Bartenschlager) isolated from colonies as described by Lohman et. al. (Lohman et al. (1999) Science 285: 110-113, expressly incorporated by reference in its entirety) and used for all experiments. The HCV replicon has the nucleic acid sequence set forth in EMBL Accession No.: AJ242651, the coding sequence of which is from nucleotides 1801 to 8406.
The coding sequence of the published HCV replicon was synthesized and subsequently assembled in a modified plasmid pBR322 (Promega, Madison, Wis.) using standard molecular biology techniques. One replicon cell line (“SGR 11-7”) stably expresses HCV replicon RNA which consists of (i) the HCV 5′UTR fused to the first 12 amino acids of the capsid protein, (ii) the neomycin phosphotransferase gene (neo), (iii) the IRES from encephalomyocarditis virus (EMCV), and (iv) HCV NS2 to NS5B genes and the HCV 3′UTR. Another replicon cell line (“Huh-luc/neo-ET”) described by Vrolijk et. al. (Vrolijk et. al. (2003) Journal of Virological Methods 110:201-209, expressly incorporated by reference in its entirety) stably expresses HCV replicon RNA which consists of (i) the HCV 5′UTR fused to the first 12 amino acids of the capsid protein, (ii) the firefly luciferase reporter gene, (iii) the ubiquitin gene, (iv) the neomycin phosphotransferase gene (neo), (v) the IRES from encephalomyocarditis virus (EMCV), and (vi) HCV NS3 to NS5B genes that harbor cell culture adaptive mutations (E1202G, T1280I, K1846T) and the HCV 3′UTR.
These cell lines were maintained at 37° C., 5% CO2, 100% relative humidity in DMEM (Cat #11965-084, Invitrogen), with 10% fetal calf serum (“FCS”, Invitrogen), 1% non-essential amino acids (Invitrogen), 1% of Glutamax (Invitrogen), 1% of 100× penicillin/streptomycin (Cat #15140-122, Invitrogen) and Geneticin (Cat #10131-027, Invitrogen) at 0.75 mg/ml or 0.5 mg/ml for 11-7 and Huh-luc/neo-ET cells, respectively.
EC50 values of single agent compounds and combinations were determined by HCV RNA detection using quantitative RT-PCR, according to the manufacturer's instructions, with a TaqMan® One-Step RT-PCR Master Mix Reagents Kit (Cat #AB 4309169, Applied Biosystems) on an ABI Model 7500 thermocycler. The TaqMan primers used for detecting and quantifying were obtained from Integrated DNA Technologies. HCV RNA was normalized to GAPDH RNA levels in drug-treated cells, which was detected and quantified using the Human GAPDH Endogenous Control Mix (Applied Biosystems, AB 4310884E). Total cellular RNA was purified from 96-well plates using the RNAqueous 96 kit (Ambion, Cat #AM1812). Chemical agent cytotoxicity was evaluated using an MTS assay according to the manufacturer's directions (Promega).
The compounds of the present invention can be effective against the HCV 1b genotype. It should also be understood that the compounds of the present invention can inhibit multiple genotypes of HCV. In one embodiment, compound of the present invention are active against the 1a, 1b, 2a, 2b, 3a, 4a, and 5a genotypes. […] EC50 ranges against HCV 1b are as follows: A>10 nM; B 1-10 nM; C<1 nM.
Background: A replicon is a self-replicating genome or part of one, used to study replication in cells.

Consider `COC(=O)N[C@@H](C)C(=O)N1CCC[C@H]1c1nc2cc(-c3ccc(-c4ccc5[nH]c([C@@H]6CCCN6C(=O)[C@H](C)NC(=O)OC)nc5c4)cc3)ccc2[nH]1` [Compound 62], for which the EC50 was less than 1 nM. Consider `O=C([C@@H]1CCCO1)N1CCC[C@H]1c1nc2cc(-c3ccc(-c4ccc5[nH]c([C@@H]6CCCN6C(=O)[C@@H]6CCCO6)nc5c4)cc3)ccc2[nH]1` [Compound 25], for which the EC50 is greater than 10 nM.

Regarding `CO[C@@H](C(=O)N1CCC[C@H]1c1nc2cc(-c3ccc(-c4ccc5[nH]c([C@@H]6CCCN6C(=O)[C@H](OC)c6ccccc6)nc5c4)cc3)ccc2[nH]1)c1ccccc1` [Compound 20], the EC50 was less than 1 nM.

For the compound `O=C([C@H]1CCCO1)N1CCC[C@H]1c1nc2cc(-c3ccc(-c4ccc5[nH]c([C@@H]6CCCN6C(=O)[C@H]6CCCO6)nc5c4)cc3)ccc2[nH]1` [Compound 26], the EC50 is greater than 10 nM. Next, `COC(=O)N[C@@H](Cn1cccn1)C(=O)N1CCC[C@H]1c1nc2cc(-c3ccc(-c4ccc5[nH]c([C@@H]6CCCN6C(=O)[C@H](Cn6cccn6)NC(=O)OC)nc5c4)cc3)ccc2[nH]1` [Compound 114]: less than 1 nM. Under `COC(=O)N[C@H](C(=O)N1CCC[C@H]1c1nc2cc(-c3ccc(-c4ccc5[nH]c([C@@H]6CCCN6C(=O)[C@@H](NC(=O)OC)[C@@H](C)OC)nc5c4)cc3)ccc2[nH]1)[C@@H](C)OC` [Compound 72] stands less than 1 nM; under `COC(=O)N[C@H](C(=O)N1CCC[C@H]1c1nc2cc(-c3ccc(-c4ccc5[nH]c([C@@H]6CCCN6C(=O)[C@@H](NC(=O)OC)[C@@H](C)O)nc5c4)cc3)ccc2[nH]1)[C@@H](C)O` [Compound 70], less than 1 nM.

`COC(=O)N[C@H]1CC[C@H](C(=O)N2CCC[C@H]2c2nc3cc(-c4ccc(-c5ccc6[nH]c([C@@H]7CCCN7C(=O)[C@H]7CC[C@H](NC(=O)OC)CC7)nc6c5)cc4)ccc3[nH]2)CC1` [Compound 42]: the EC50 is greater than 10 nM. Under `CN(C)[C@@H](C(=O)N1CCC[C@H]1c1nc2cc(-c3ccc(-c4ccc5[nH]c([C@@H]6CCCN6C(=O)[C@@H](c6ccccc6)N(C)C)nc5c4)cc3)ccc2[nH]1)c1ccccc1` [Compound 2] stands less than 1 nM; under `COC(=O)N[C@H](C(=O)N1CCC[C@H]1c1nc2cc(-c3ccc(-c4ccc5[nH]c([C@@H]6CCCN6C(=O)[C@@H](NC(=O)OC)C(C)(C)C)nc5c4)cc3)ccc2[nH]1)C(C)(C)C` [Compound 372], less than 1 nM; under `COC(=O)N[C@H](C(=O)N1CCC[C@H]1c1nc2cc(-c3ccc(-c4ccc5[nH]c([C@@H]6CCCN6C(=O)[C@@H](NC(=O)OC)C(C)C)nc5c4)cc3)ccc2[nH]1)C(C)C` [Compound 83], less than 1 nM. Turning to `CC(C)[C@H](NC(=O)OCc1ccccc1)C(=O)N1CCC[C@H]1c1nc2cc(-c3ccc(-c4ccc5[nH]c([C@@H]6CCCN6C(=O)[C@@H](NC(=O)OCc6ccccc6)C(C)C)nc5c4)cc3)ccc2[nH]1` [Compound 361], the EC50 was greater than 10 nM.

`COC(=O)N[C@@H](C(=O)N1CCC[C@H]1c1nc2cc(N3CC(=O)N(c4ccc5[nH]c([C@@H]6CCCN6C(=O)[C@H](NC(=O)OC)c6ccccc6)nc5c4)CC3=O)ccc2[nH]1)c1ccccc1` [Compound 357]: the EC50 was greater than 10 nM. Turning to `COC(=O)N[C@H](C(=O)N1CCC[C@H]1c1nc2cc(-c3ccc(-c4ccc5[nH]c([C@@H]6CCCN6C(=O)[C@@H](NC(=O)OC)C6CC6)nc5c4)cc3)ccc2[nH]1)C1CC1` [Compound 78], the half-maximal effective concentration (EC50) is less than 1 nM.

Take `CC[C@H](NC(=O)OC)C(=O)N1CCC[C@H]1c1nc2cc(-c3ccc(-c4ccc5[nH]c([C@@H]6CCCN6C(=O)[C@H](CC)NC(=O)OC)nc5c4)cc3)ccc2[nH]1` [Compound 67]: the EC50 was less than 1 nM. Next, `COC(=O)N[C@@H](C(=O)N1CCC[C@H]1c1nc2cc(-c3ccc(-c4ccc5[nH]c([C@@H]6CCCN6C(=O)[C@H](NC(=O)OC)c6ccccc6)nc5c4)cc3)ccc2[nH]1)c1ccccc1` [Compound 3]: less than 1 nM; `O=C(c1ccccn1)N1CCC[C@H]1c1nc2cc(-c3ccc(-c4ccc5[nH]c([C@@H]6CCCN6C(=O)c6ccccn6)nc5c4)cc3)ccc2[nH]1` [Compound 54]: greater than 10 nM; `O=C(c1ccncc1)N1CCC[C@H]1c1nc2cc(-c3ccc(-c4ccc5[nH]c([C@@H]6CCCN6C(=O)c6ccncc6)nc5c4)cc3)ccc2[nH]1` [Compound 52]: greater than 10 nM. In the case of `COC(=O)N[C@@H](C(=O)N1CCC[C@H]1c1nc2cc(N3CCN(c4ccc5[nH]c([C@@H]6CCCN6C(=O)[C@H](NC(=O)OC)c6ccccc6)nc5c4)CC3)ccc2[nH]1)c1ccccc1` [Compound 354], the EC50 is less than 1 nM.

The term EC50 denotes the concentration needed to bring the measured effect to its halfway point.
